Experimental data as given in ChEMBL document CHEMBL5236617, “Rapid Evolution of a Fragment-like Molecule to Pan-Metallo-Beta-Lactamase Inhibitors: Initial Leads toward Clinical Candidates” (J Med Chem, 2022).
Each block holds one molecule with its values, some of them ahead of it. Active and inactive are the calls of the source. The calls are words filed in the database; no cut-off is given here.

Assays:
[1] = Inhibition of GST-tagged bacterial beta-lactamase VIM-1 expressed in Escherichia coli BL21(DE3) using CCF2-FA as substrate by fluorescence assay; design: species or system Bacteria
[2] = Inhibition of GST-tagged bacterial beta-lactamase […] expressed in Escherichia coli BL21(DE3) using CCF2-FA as substrate by fluorescence assay; design: species or system Bacteria
[3] = Inhibition of GST-tagged bacterial beta-lactamase IMP-1 expressed in Escherichia coli BL21(DE3) using CCF2-FA as substrate by fluorescence assay; design: species or system Bacteria
Serratia marcescens = test: Potentiation of imipenem-induced antibacterial activity against IMP-1 expressing Serratia marcescens assessed as imipenem MIC incubated for 22 to 24 hrs (reference value: 16 ug/ml); type: functional; conditions: time 22-24 hrs
Escherichia coli = test: Potentiation of imipenem-induced antibacterial activity against NDM-1 expressing Escherichia coli assessed as imipenem MIC incubated for 22 to 24 hrs (reference value: 32 ug/ml); type: functional; conditions: time 22-24 hrs
[4] = MRT in mouse at 5 mg/kg, iv; type: ADME, organism-based; conditions: in vivo
[5] = Cmax in mouse at 10 mg/kg, sc; type: ADME, organism-based; design: dose 10 mg/kg, route sc; conditions: in vivo
[6] = Clearance in mouse at 5 mg/kg, iv; type: ADME, organism-based; conditions: in vivo
[7] = AUC in mouse at 10 mg/kg, sc; type: ADME, organism-based; design: dose 10 mg/kg, route sc; conditions: in vivo
[8] = Plasma protein binding in C57BL/6 mouse assessed as unbound fraction; type: ADME, cell-free
[9] = target: Voltage-gated inwardly rectifying potassium channel KCNH2 (Homo sapiens, UniProt Q12809); test: Displacement of MK499 from human ERG
[10] = Plasma protein binding in Wistar Han rat assessed as unbound fraction; type: ADME, cell-free
[11] = target: T1, Nuclear receptor subfamily 1 group I member 2 (Homo sapiens, UniProt O75469); test: Inhibition of human PXR
T1 sequence (O75469 whole entry): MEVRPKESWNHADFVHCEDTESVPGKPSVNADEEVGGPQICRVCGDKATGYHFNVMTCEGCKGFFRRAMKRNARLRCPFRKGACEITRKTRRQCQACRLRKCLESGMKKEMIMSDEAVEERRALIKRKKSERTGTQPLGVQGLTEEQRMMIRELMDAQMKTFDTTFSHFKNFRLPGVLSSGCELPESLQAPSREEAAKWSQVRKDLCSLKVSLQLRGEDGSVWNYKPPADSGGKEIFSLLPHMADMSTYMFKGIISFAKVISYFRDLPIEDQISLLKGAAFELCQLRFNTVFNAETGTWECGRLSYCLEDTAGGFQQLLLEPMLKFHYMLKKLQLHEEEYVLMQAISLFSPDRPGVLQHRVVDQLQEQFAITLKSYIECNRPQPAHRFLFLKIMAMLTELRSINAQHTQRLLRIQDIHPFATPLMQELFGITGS

[12] = Tmax in mouse at 10 mg/kg, sc; type: ADME, organism-based; conditions: in vivo
[13] = AUC in mouse at 5 mg/kg, iv; type: ADME, organism-based; design: dose 5 mg/kg, route iv; conditions: in vivo
[14] = Tmax in mouse at 50 mg/kg, sc; type: ADME, organism-based; conditions: in vivo
Cytochrome P450 3A4 = Cytochrome P450 3A4 (Homo sapiens, UniProt P08684); test: Reversible inhibition of CYP3A4 (unknown origin); type: ADME
PXR (NR1I2) = target: T2, PXR (NR1I2) (Homo sapiens, UniProt O75469); test: Inhibition of human PXR at 30 uM relative to control
T2 sequence (O75469 whole entry): T1 sequence (O75469 whole entry)

[15] = Plasma protein binding in human assessed as unbound fraction; type: ADME, cell-free
[16] = Volume of distribution at steady state in mouse at 5 mg/kg, iv; type: ADME, organism-based; conditions: in vivo, read-out: Vdss
[17] = Cmax in mouse at 50 mg/kg, sc; type: ADME, organism-based; design: dose 50 mg/kg, route sc; conditions: in vivo
[18] = AUC in mouse at 50 mg/kg, sc; type: ADME, organism-based; design: dose 50 mg/kg, route sc; conditions: in vivo
Cytochrome P450 2C9 = Cytochrome P450 2C9 (Homo sapiens, UniProt P11712); test: Reversible inhibition of CYP2C9 (unknown origin); type: ADME
CYP3A4 = CYP3A4 (Homo sapiens, UniProt P08684); test: in vitro
[19] = target: Sodium channel protein type 5 subunit alpha (Homo sapiens, UniProt Q14524); test: Inhibition of Nav1.5 (unknown origin)
Cytochrome P450 2D6 = Cytochrome P450 2D6 (Homo sapiens, UniProt P10635); test: Reversible inhibition of CYP2D6 (unknown origin); type: ADME
[20] = Selectivity ratio of MITC50 for IMP-1 expressing Serratia marcescens to IC50 for GST-tagged bacterial beta-lactamase IMP-1
[21] = Selectivity ratio of MITC50 for NDM-1 expressing Escherichia coli to IC50 for GST-tagged bacterial beta-lactamase […]
[22] = Selectivity ratio of MITC50 for VIM-1 expressing Klebsiella pneumoniae to IC50 for GST-tagged bacterial beta-lactamase VIM-1
Klebsiella pneumoniae [23] = test: Potentiation of imipenem-induced antibacterial activity against VIM-1 expressing Klebsiella pneumoniae assessed as imipenem MIC incubated for 22 to 24 hrs (reference value: 16 ug/ml); type: functional; conditions: time 22-24 hrs
Klebsiella pneumoniae [24] = test: Antibacterial activity against Klebsiella pneumoniae MB9249 expressing IMP-26 infected in cyclophosphamide treated DBA/2 mouse assessed as reduction in bacterial burden in spleen at 10 to 50 mg/kg, sc administered three times for 1 day and measured after 24 hrs post injection; type: functional, organism-based; conditions: dose 10-50 mg/kg
Klebsiella pneumoniae [25] = test: Antibacterial activity against Klebsiella pneumoniae MB9249 expressing IMP-26 infected in cyclophosphamide treated DBA/2 mouse assessed as reduction in bacterial burden in kidney at 10 to 50 mg/kg, sc administered three times for 1 day and measured after 24 hrs post injection in presence of imipenem; type: functional, organism-based; conditions: dose 10-50 mg/kg
[26] = Inhibition of Cav1.5 (unknown origin); design: species or system Homo sapiens
Klebsiella pneumoniae [27] = test: Antibacterial activity against Klebsiella pneumoniae MB9249 expressing IMP-26 infected in cyclophosphamide treated DBA/2 mouse assessed as reduction in bacterial burden in kidney at 10 to 50 mg/kg, sc administered three times for 1 day and measured after 24 hrs post injection; type: functional, organism-based; conditions: dose 10-50 mg/kg
Klebsiella pneumoniae [28] = test: Antibacterial activity against Klebsiella pneumoniae MB9249 expressing IMP-26 infected in cyclophosphamide treated DBA/2 mouse assessed as reduction in bacterial burden in spleen at 10 to 50 mg/kg, sc administered three times for 1 day and measured after 24 hrs post injection in presence of imipenem; type: functional, organism-based; conditions: dose 10-50 mg/kg

Sequence of Voltage-gated inwardly rectifying potassium channel KCNH2 (Q12809 whole entry): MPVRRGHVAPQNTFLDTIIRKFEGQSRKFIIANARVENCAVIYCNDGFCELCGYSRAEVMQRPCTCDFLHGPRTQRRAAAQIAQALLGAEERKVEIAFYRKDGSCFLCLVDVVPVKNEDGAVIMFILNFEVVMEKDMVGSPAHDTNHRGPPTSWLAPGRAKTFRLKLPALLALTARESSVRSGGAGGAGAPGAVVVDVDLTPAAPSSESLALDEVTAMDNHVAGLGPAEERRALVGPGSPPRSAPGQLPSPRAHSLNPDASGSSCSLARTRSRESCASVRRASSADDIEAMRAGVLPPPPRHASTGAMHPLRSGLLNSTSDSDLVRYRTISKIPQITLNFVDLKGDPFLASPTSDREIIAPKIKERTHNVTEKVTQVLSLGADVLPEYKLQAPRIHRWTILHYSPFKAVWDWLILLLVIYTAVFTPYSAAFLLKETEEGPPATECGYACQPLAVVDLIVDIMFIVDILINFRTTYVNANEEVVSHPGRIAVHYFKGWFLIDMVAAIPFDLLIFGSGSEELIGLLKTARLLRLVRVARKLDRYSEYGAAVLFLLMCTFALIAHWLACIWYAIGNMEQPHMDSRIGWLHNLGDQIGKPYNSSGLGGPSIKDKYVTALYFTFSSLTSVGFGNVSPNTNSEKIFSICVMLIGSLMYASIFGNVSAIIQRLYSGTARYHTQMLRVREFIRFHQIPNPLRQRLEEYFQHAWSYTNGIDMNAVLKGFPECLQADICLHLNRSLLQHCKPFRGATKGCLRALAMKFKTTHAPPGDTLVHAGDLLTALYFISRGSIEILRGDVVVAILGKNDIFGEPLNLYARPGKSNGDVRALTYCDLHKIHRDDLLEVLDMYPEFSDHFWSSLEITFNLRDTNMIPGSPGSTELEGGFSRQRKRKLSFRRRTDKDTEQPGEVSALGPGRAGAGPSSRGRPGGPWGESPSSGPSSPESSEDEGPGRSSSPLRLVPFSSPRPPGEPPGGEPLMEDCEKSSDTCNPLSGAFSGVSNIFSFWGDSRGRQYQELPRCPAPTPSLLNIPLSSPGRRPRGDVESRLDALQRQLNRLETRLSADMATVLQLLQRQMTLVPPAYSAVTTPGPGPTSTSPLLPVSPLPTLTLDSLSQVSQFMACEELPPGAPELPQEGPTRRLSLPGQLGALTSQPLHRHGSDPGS
Sequence of Cytochrome P450 2D6 (P10635 whole entry): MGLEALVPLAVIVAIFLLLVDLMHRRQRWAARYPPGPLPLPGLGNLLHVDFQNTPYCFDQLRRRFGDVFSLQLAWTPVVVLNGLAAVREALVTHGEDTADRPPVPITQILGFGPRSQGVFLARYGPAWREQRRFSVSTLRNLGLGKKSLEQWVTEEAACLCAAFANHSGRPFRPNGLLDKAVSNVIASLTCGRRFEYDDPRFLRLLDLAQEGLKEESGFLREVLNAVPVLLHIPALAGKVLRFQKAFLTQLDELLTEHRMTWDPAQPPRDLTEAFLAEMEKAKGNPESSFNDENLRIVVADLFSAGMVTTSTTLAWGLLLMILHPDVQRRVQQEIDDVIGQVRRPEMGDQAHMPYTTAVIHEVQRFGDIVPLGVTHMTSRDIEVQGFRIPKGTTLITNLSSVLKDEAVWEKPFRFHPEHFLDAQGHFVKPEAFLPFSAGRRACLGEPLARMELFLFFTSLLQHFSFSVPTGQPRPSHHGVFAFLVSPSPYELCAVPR
Sequence of CYP3A4 (P08684 whole entry): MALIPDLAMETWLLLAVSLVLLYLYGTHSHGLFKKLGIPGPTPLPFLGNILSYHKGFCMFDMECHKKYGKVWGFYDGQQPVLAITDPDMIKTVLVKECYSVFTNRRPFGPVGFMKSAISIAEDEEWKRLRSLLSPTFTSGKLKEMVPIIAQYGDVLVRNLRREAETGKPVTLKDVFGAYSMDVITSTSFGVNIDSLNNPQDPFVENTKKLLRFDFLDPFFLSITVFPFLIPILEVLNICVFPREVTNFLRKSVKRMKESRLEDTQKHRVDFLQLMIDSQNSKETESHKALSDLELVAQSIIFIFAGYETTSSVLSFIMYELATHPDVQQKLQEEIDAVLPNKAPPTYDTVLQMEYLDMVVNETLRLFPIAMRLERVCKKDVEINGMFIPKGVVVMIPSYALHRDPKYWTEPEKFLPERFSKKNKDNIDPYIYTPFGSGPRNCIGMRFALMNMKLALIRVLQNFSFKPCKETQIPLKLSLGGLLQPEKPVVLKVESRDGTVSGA
Sequence of Cytochrome P450 3A4 (P08684 whole entry): as above
Sequence of Sodium channel protein type 5 subunit alpha (Q14524 whole entry): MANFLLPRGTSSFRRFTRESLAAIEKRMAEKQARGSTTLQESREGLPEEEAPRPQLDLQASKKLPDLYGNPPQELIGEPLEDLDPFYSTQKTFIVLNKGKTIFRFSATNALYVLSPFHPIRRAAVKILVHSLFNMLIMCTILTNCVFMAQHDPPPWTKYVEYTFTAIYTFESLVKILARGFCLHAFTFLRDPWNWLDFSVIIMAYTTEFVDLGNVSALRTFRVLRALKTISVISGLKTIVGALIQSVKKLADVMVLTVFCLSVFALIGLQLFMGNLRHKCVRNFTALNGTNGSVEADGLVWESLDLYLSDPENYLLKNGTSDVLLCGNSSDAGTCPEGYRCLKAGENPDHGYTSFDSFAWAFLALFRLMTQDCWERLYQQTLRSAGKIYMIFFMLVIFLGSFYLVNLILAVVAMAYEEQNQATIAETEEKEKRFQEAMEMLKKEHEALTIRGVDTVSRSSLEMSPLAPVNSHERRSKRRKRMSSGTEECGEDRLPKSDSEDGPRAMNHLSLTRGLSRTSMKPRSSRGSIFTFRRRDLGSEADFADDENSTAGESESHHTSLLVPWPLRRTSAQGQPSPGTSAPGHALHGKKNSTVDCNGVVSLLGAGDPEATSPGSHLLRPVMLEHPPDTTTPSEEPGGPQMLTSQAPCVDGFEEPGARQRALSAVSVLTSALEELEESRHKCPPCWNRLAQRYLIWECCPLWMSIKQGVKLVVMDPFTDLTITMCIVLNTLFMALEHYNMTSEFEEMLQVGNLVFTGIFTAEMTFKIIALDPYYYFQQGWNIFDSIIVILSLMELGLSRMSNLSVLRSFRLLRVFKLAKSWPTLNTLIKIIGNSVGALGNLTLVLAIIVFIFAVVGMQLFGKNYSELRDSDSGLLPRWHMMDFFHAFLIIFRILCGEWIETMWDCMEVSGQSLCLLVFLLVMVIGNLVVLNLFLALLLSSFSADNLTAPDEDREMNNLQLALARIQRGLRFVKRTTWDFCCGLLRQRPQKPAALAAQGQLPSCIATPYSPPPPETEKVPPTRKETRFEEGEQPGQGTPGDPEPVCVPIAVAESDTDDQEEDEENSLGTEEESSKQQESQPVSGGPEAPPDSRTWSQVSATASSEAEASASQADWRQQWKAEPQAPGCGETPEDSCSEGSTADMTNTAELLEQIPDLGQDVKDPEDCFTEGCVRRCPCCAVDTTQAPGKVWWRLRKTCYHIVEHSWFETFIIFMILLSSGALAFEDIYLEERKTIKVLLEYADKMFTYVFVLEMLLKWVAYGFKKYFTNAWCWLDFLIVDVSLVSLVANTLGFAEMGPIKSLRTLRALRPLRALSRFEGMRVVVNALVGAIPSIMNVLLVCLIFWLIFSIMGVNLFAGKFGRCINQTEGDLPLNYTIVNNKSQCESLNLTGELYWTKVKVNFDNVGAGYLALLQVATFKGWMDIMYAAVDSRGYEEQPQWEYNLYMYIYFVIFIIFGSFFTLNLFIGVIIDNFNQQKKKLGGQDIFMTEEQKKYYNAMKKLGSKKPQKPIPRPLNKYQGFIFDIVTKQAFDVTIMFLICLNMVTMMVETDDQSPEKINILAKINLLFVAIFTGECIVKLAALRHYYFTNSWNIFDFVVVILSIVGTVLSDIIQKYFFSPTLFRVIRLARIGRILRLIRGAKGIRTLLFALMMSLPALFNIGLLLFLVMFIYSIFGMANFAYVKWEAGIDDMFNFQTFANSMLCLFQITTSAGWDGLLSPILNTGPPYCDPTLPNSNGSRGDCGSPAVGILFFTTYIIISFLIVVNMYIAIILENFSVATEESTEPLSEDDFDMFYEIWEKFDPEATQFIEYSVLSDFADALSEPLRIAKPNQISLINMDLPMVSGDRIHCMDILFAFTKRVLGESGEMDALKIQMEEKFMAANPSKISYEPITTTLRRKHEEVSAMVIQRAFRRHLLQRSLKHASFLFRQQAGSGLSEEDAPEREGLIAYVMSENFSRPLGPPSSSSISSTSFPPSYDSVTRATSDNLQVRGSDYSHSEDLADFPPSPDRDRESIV
Sequence of Cytochrome P450 2C9 (P11712 whole entry): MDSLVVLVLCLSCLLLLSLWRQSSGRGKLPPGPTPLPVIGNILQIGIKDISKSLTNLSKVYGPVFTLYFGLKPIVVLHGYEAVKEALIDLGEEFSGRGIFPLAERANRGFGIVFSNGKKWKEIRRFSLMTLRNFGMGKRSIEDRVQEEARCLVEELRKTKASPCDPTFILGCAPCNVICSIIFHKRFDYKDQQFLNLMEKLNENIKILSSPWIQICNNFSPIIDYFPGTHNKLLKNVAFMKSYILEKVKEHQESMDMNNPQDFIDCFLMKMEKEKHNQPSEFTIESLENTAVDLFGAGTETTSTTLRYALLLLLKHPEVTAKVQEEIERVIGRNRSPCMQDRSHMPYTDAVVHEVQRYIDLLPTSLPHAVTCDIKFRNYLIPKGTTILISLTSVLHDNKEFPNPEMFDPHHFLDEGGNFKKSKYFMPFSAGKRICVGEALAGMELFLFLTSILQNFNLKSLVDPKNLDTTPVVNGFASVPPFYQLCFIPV

SMILES: CCCCc1nc2ccc(O)cc2c(=O)n1Cc1ccc(-c2ccccc2-c2nnn[nH]2)cc1
IC50 [1]: 13 nM | IC50 [2]: 52 nM

SMILES: c1ccc(-c2ccccc2-c2nn[nH]n2)cc1
IC50 [1]: 22 nM | IC50 [3]: 2 nM | IC50 [2]: 44 nM

SMILES: NS(=O)(=O)c1cccc(-c2ccnc(CO)c2)c1-c1nn[nH]n1
MITC95 (Serratia marcescens): 50 µM | MITC95 (Escherichia coli): 0.39 µM

SMILES: O=C(O)COc1ccc2c(c1)CCN(C(=O)C(CS)CCc1ccccc1)C2C(=O)O (configuration not stated)
IC50 [1]: 2.48 nM | IC50 [3]: 0.155 nM | IC50 [2]: 0.243 nM

SMILES: CNS(=O)(=O)c1cccc(-c2ccc(C)cc2)c1-c1nnn[nH]1
IC50 [1]: 18000 nM | IC50 [3]: > 20000 nM | IC50 [2]: 15800 nM

SMILES: CC(CS)C(=O)N1CCc2ccccc2C1C(=O)O (configuration not stated)
IC50 [1]: 7.4 nM | IC50 [3]: 2.7 nM | IC50 [2]: 3.5 nM

SMILES: CCCc1c(OCc2cccc(-c3ccccc3-c3nnn[nH]3)c2)ccc(C(C)=O)c1O
IC50 [1]: 23 nM | IC50 [3]: 1 nM | IC50 [2]: 35 nM

Second part, led by results:

IC50 [1]: 7200 nM | IC50 [3]: > 20000 nM | IC50 [2]: 704 nM
SMILES: OCc1ccc(-c2cccc(O)c2-c2nnn[nH]2)cc1

MRT [4]: 312 min | Cmax [5]: 13.4 µM | clearance [6]: 9.33 mL/min/kg | AUC [7]: 27.4 µM·h | fraction unbound [8]: 0.43 | fraction unbound [10]: 0.3 | IC50 [11]: > 30000 nM | Tmax [12]: 49.8 min | AUC [13]: 27.1 µM·h | Tmax [14]: 30 min | IC50 (Cytochrome P450 3A4): > 30000 nM | Emax at 30 µM (PXR (NR1I2)): 1.94% | fraction unbound [15]: 0.23 | Vd [16]: 2.97 L/kg | Cmax [17]: 69.1 µM | AUC [18]: 111 µM·h | IC50 (Cytochrome P450 2C9): > 30000 nM | IC50 shift (CYP3A4): 1 | IC50 (Cytochrome P450 2D6): > 30000 nM
SMILES: NS(=O)(=O)c1nccc(-c2ccc(CO)cc2)c1-c1nnn[nH]1
IC50 [9]: > 60000 nM | IC50 [19]: > 30000 nM

IC50 [1]: 201 nM | IC50 [3]: 375 nM | IC50 [2]: 35 nM
SMILES: NS(=O)(=O)c1nccc(-c2ccccc2)c1-c1nn[nH]n1
MITC95 (Escherichia coli): <0.195 µM

IC50 [1]: 285 nM | Selectivity ratio [20]: 19 | IC50 [3]: 485 nM | IC50 [2]: 36 nM | Selectivity ratio [22]: 87
SMILES: NS(=O)(=O)c1cccc(-c2ccncc2)c1-c1nn[nH]n1
MITC95 (Serratia marcescens): 9.37 µM | Selectivity ratio [21]: 12 | MITC95 (Escherichia coli): 0.45 µM | MITC95 (Klebsiella pneumoniae [23]): 25 µM

IC50 [1]: 269 nM | IC50 [3]: 369 nM | IC50 [26]: > 30000 nM | IC50 [2]: 35 nM
SMILES: NS(=O)(=O)c1nccc(-c2ccc(CO)cc2)c1-c1nn[nH]n1
Activity (Klebsiella pneumoniae [24]): inactive | MITC95 (Serratia marcescens): 5.19 µM | Activity (Klebsiella pneumoniae [25]): Active | MITC95 (Escherichia coli): 0.558 µM | Activity (Klebsiella pneumoniae [27]): inactive | Activity (Klebsiella pneumoniae [28]): Active | MITC95 (Klebsiella pneumoniae [23]): 11.76 µM
